Assay results as given in PubChem BioAssay AID2060485 (Molecular Pharmacology Branch, DTP, NCI, 2025).
Where “and” joins values, the source holds several entries; their conditions need not be identical. Equal values may be shown once.

Tested on: A375 multi-cell spheroids with HUVEC/MSC, viability
Test: Anticancer human tumor A375 cell line growth inhibition [GQUAD];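 further: spheroids exposed to compounds for seven days before readout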
Conditions: for viability, T/C: stronger effect = lower value; for IC50: curve of compound
Source text: DNA G-quadruplex Stabilizer Agents in Combinations in Complex Spheroids
A high-throughput screen of multi-cell type tumor spheroids was designed to identify active combinations of DNA G-quadruplex stabilizer agents and targeted small molecules. Complex spheroids include a stromal component modeled by human endothelial cells (HUVEC) and fibroblasts modeled by human mesenchymal stem cells (MSCs). The concentration ranges selected for each drug and investigational agent were based upon clinically achievable concentrations if the clinical Cmax of the agent was known.
Compounds. The drugs and investigational agents: pidnarulex (CX-5461; NSC782164), APTO-253 (NSC789042), BRACO-19 (NSC847499), peposertib (NSC802822), ceralasertib (NSC780249), elimusertib (NSC800525), camonsertib (NSC841442), AZD-1390 (NSC803789), olaparib (NSC753686), talazoparib (NSC767125), ART-558 (NSC835418), sotorasib (NSC818433), MRTX-1133 (NSC836407), SN-38 (NSC673596), topotecan (NSC609699), etoposide (NSC141540), doxorubicin (NSC123127), gemcitabine (NSC613327), 5-fluorouracil (NSC19893), paclitaxel (NSC125973), vemurafenib (NSC761431), panobinostat (NSC761190), R-306465 (JNJ-16241199; NSC773264), adavosertib (NSC754352), TP-3654 (NSC805149), carboplatin (NSC241240), KSQ-4279 (NSC840948), and staurosporine (NSC755774) were obtained from the National Cancer Institute (NCI) Developmental Therapeutics Program Chemical Repository (34). The FDA-approved anticancer drug set is available from the NCI Developmental Therapeutics Program. […] The stock solutions were prepared in dimethyl sulfoxide (DMSO, Sigma-Aldrich, St. Louis, MO, cat. D2650) at 800-fold the tested concentration and stored at -70 degrees C prior to their use. All drugs and investigational agents were tested over a range starting from a high concentration at or near the clinical Cmax and decreasing in half-log increments. If the clinical Cmax for an agent had not been determined, the highest concentration tested was 10 microM.
2.3 Cell Culture. All cells were maintained in an incubator at 37 degrees C and 5% CO2 with 95% humidity. The PDC lines were cultured according to standard operating procedures established by the NCI PDMR. All PDCs were thawed and cultured in Matrigel-coated flasks prepared with a working solution of 1X Ham's F-12 nutrient mix, without supplementation (Invitrogen, cat. 11765054), 100 U/mL penicillin-streptomycin (Invitrogen, cat. 15140122), and 2.5% Matrigel (Corning Inc., cat. 354248) for the first three passages. The 857933-349-R-J2-PDC line was cultured in 6C/Colon 1B media, which includes advanced DMEM/F-12 (Thermo Fisher Scientific, cat. 12634028), 10 mM HEPES (Thermo Fisher Scientific, cat. 15630080), 1X GlutaMAX supplement (Thermo Fisher Scientific, cat. 35050061), 0.1 mg/mL primocin (InvivoGen, cat. ant-pm-2), 10% defined fetal bovine serum, heat inactivated (HyClone Laboratories Inc., cat. SH30070.03HI), 50% L-WRN conditioned media (ATCC, cat. CRL-3276), 1.25 mM N-Acetyl-L-cysteine (Sigma-Aldrich, cat. A9165), 10 mM nicotinamide (Sigma-Aldrich, cat. N0636), 1X B-27 supplement (Thermo Fisher Scientific, cat. 17504044), 1X N-2 supplement (Thermo Fisher Scientific, cat. 17502048), 10 microM Y-27632 dihydrochloride (Tocris Bioscience, cat. 1254), and 50 ng/mL human EGF recombinant protein (Thermo Fisher Scientific, cat. PHG0311). The 485176-168-R4-J1-PDC line was cultured in Panc media, which includes all 6C/Colon 1B media components plus 100 ng/mL human FGF-10 (Thermo Fisher Scientific, cat. 100-26), 500 nM SB-431542 (Selleckchem, cat. S1067), and gastrin (Tocris, cat. 3006).
[…]

| SMILES | viability, T/C (compound 0.0316 µM) | viability, T/C (compound 0.1 µM) | viability, T/C (compound 0.316 µM) | viability, T/C (compound 1 µM) | viability, T/C (compound 3.16 µM) | viability, T/C (compound 10 µM) | IC50 |
| --- | --- | --- | --- | --- | --- | --- | --- |
| C#Cc1c(F)ccc2cc(O)cc(-c3ncc4c(N5CC6CCC(C5)N6)nc(OCC56CCCN5CC(F)C6)nc4c3F)c12 (configuration not stated) | 103% and 97.8% and 101% | 96% and 106% and 96.2% | 97.2% and 96.2% and 108% | 101% and 117% (2×) | 113% and 106% and 101% | 90.4% and 98.4% and 113% | > 10 µM |
| C=CC(=O)N1CCN(c2nc(=O)n(-c3c(C)ccnc3C(C)C)c3nc(-c4c(O)cccc4F)c(F)cc23)C(C)C1 (configuration not stated) | 94.3% and 100% and 93.8% | 105% and 91.8% and 94.4% | 95.2% and 94.2% and 99% | 101% and 90.2% and 99.8% | 109% and 99.3% and 126% | 101% and 119% and 111% | > 10 µM |
| C=CCn1c(=O)c2cnc(Nc3ccc(N4CCN(C)CC4)cc3)nc2n1-c1cccc(C(C)(C)O)n1 | 101% and 98.4% and 96.4% | 104% and 102% and 96.9% | 89.5% and 96.9% and 102% | 48.4% and 59% and 66.4% | 11.5% and 13.3% and 17.2% | 5.76% and 7.73% and 8.28% | 0.943 µM and 1.25 µM and 1.47 µM |
| CC(=O)O[C@H]1C(=O)[C@@]2(C)[C@H]([C@H](OC(=O)c3ccccc3)[C@]3(O)C[C@H](OC(=O)[C@H](O)[C@@H](NC(=O)c4ccccc4)c4ccccc4)C(C)=C1C3(C)C)[C@]1(OC(C)=O)CO[C@@H]1C[C@@H]2O | 68.9% and 90.7% and 112% | 18.1% and 20.5% and 32.6% | 9.64% and 11.9% and 16.6% | 9.68% and 8.91% and 13.8% | 7.88% and 12.2% and 13.3% | 10.8% and 15.2% and 17.8% | 0.0485 µM and 0.0616 µM and 0.0776 µM |
| CC(C)(O)C1CCC(Nc2ccc3ncc(-c4cccc(C(F)(F)F)c4)n3n2)CC1 (configuration not stated) | 104% and 93.2% and 105% | 105% and 99.9% and 95.9% | 99.1% and 95.6% and 91.5% | 97.7% and 95.2% and 105% | 90.2% and 83.5% and 92% | 87.5% and 88% and 97.8% | > 10 µM |
| CC(C)n1c(=O)n(C)c2cnc3cc(F)c(-c4ccc(OCCCN5CCCCC5)nc4)cc3c21 | 103% and 99.6% and 97.1% | 92.8% and 105% and 111% | 96.4% and 103% and 99.7% | 97.4% and 108% and 98.7% | 102% and 114% and 109% | 94.5% and 85.4% and 97.5% | > 10 µM |
